This note sets out measurements from article PMC5706701, “Development of a homogenous high-throughput assay for inositol hexakisphosphate kinase 1 activity” (PLoS ONE, 2017).

Where a name gives a salt, the structure may show the parent alone. Read-outs that look alike come from different tables or passages of the source.

In the assay the target is T1, Human IP6K1 (Homo sapiens, UniProt Q92551).
T1 construct: GST (N, cleaved yes); made in house; host or cells: C43 E. coli, pGEX-6P-2
As to the kind of experiment: IP6K1 high-throughput screen of the Sigma LOPAC (ADP-Glo Max, single point).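 Also: final compound concentration 10µM in 5% DMSO.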 The class given is biochemical.

Where [1] appears, read: LOPAC single-point screen, ADP-Glo Max raw signal per well.
The mark [2] stands for this setting: LOPAC single-point screen, Z-score against plate average and StDev.
[3] abbreviates: LOPAC single-point screen, Z-score from raw signal with plate average and StDev.
[4] abbreviates: LOPAC single-point screen, ADP-Glo Max luminescence raw signal per well.
The mark [5] stands for this setting: LOPAC single-point screen, Z-score relative to plate average and StDev.
Where [6] appears, read: Sigma LOPAC single-point screen, ADP-Glo Max raw signal per well.
The mark [7] stands for this setting: Sigma LOPAC single-point screen, Z-score from plate average and StDev.
Where [8] appears, read: LOPAC single-point screen, Z-score from plate average and StDev.

T1 sequence (Q92551 whole entry): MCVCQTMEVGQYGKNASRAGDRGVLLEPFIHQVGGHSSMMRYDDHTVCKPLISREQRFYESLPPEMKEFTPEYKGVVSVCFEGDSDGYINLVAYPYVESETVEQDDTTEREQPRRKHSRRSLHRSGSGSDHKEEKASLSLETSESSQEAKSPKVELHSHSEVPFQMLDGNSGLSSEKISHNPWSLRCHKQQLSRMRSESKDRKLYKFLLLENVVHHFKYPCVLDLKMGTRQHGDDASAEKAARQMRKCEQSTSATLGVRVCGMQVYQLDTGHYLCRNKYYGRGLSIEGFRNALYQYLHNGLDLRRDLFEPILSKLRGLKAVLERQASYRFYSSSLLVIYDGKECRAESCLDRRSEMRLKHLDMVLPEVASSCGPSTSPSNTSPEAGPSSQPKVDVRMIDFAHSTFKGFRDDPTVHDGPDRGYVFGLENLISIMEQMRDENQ

Turning to `N[C@@H](CS(=O)O)C(=O)O` [L-Cysteinesulfinic Acid], the “Raw Signal” value under setting [1] is recorded as 57943. Further, the Z-score under setting [2] worked out at 0.005266.

As to `c1ccc2c(CC3=NCCN3)cccc2c1` [Naphazoline hydrochloride], the “Raw Signal” value under setting [1] turned out to be 52798. The compound further gave a Z-score under setting [3] of -0.2681.

Turning to `Nc1nc2ccc(OC(F)(F)F)cc2s1` [Riluzole], the “Raw Signal” value under setting [4] came out at 52217. In addition, under setting [5], the Z-score is given as -0.7396.

For the compound `NCCCNCCSP(=O)(O)O` [Amifostine], the “Raw Signal” value under setting [4] is given as 55102. This compound showed a Z-score under setting [5] of -0.4951.

As to `S=C=Nc1ccc2oc(C3=NCCN3)cc2c1` [BU99006], the “Raw Signal” value under setting [1] came out at 56328. The compound further came in with a Z-score under setting [2] of 0.2358.

Take `CCc1cccc(N(C)C(N)=Nc2cccc3ccccc23)c1` [CNS-1102]: the “Raw Signal” value under setting [6] turned out to be 64774. Under setting [7], this compound had a Z-score of 1.208.

In the case of `CNCC(O)c1ccc(O)c(O)c1.Cl` (racemic) [(±)-Epinephrine hydrochloride], the “Raw Signal” value came out at 49297 and the Z-score is -1.192.

Turning to `CP(=O)(O)CCCN.Cl` [SKF 97541 hydrochloride], the “Raw Signal” value under setting [1] is 57179. Further, the Z-score under setting [3] is recorded as -0.1293.

With `Oc1ccc(C2CNCCc3c2cc(O)c(O)c3Cl)cc1` (stereo not shown) [Fenoldopam bromide], the “Raw Signal” value under setting [6] is on record as 59808. Further, under setting [7], the Z-score amounted to 0.9425.

Consider `CC1(C(=O)O)C2CCC(O2)C1(C)C(=O)O` (stereo not shown) [Cantharidic Acid], for which, under setting [6], the “Raw Signal” value is listed as 61779. Under setting [7], this compound came in with a Z-score of 0.6809.

On to `Cc1cc(C(C)(C)C)cc(C)c1CC1=NCCN1` [Xylometazoline hydrochloride], for which, under setting [1], the “Raw Signal” value was determined as 57404. The same compound came in with a Z-score under setting [2] of 0.2681.

For the compound `CCCN1C[C@H](CSC)C[C@@H]2c3cccc4[nH]cc(c34)C[C@H]21` [Pergolide methanesulfonate], the “Raw Signal” value under setting [1] amounted to 53757. The compound further showed a Z-score under setting [3] of -0.4404.

`CN1C(=O)CC[C@H]1c1cccnc1` [(-)-Cotinine] showed a Z-score under setting [5] of -0.59.

Take `CCN1C(=O)C=CC1=O` [N-Ethylmaleimide]: the “Raw Signal” value under setting [1] was 55064. The compound also showed a Z-score under setting [2] of -0.02093.

`CCn1nc(C(=O)O)c(=O)c2cc3c(cc21)OCO3` [Cinoxacin]: the “Raw Signal” value under setting [1] was found to be 58068. This compound showed a Z-score under setting [2] of 0.02728.

With `C=CCN1CC[C@]23c4c5ccc(O)c4O[C@H]2/C(=N/NC(=O)c2ccccc2)CC[C@@]3(O)[C@H]1C5` [Naloxone benzoylhydrazone], the “Raw Signal” value under setting [6] came to 57821. Under setting [7], this compound showed a Z-score of 0.5759.

Take `Br.C=CCN1CCc2c(cc(O)c(O)c2Br)[C@@H](c2ccccc2)C1` [R(+)-6-Bromo-APB hydrobromide]: the “Raw Signal” value under setting [1] turned out to be 58651. Moreover, the Z-score under setting [2] was 0.13.

For `COc1ccccc1N1CCN(CCN2C(=O)CC3(CCCC3)CC2=O)CC1.Cl.Cl` [BMY 7378 dihydrochloride], the “Raw Signal” value under setting [4] was determined as 52642. This compound also displayed a Z-score under setting [5] of -0.9284.

With `Cl.Cl.NCCC(=O)NCCc1c[nH]cn1` [Carcinine dihydrochloride], under setting [4], the “Raw Signal” value was found to be 35878. Also, the Z-score under setting [5] is -3.881.

In the case of `NCCCCCC(=O)O` [6-Aminohexanoic acid], the “Raw Signal” value under setting [4] turned out to be 70191. The Z-score under setting [8] was 2.162.

For the compound `CC(=O)[C@]1(O)Cc2c(O)c3c(c(O)c2[C@@H](O[C@H]2C[C@H](N)[C@H](O)[C@H](C)O2)C1)C(=O)c1ccccc1C3=O` [Idarubicin], the “Raw Signal” value under setting [1] is recorded as 55218. Under setting [2], this compound returned a Z-score of 0.01035.

In the case of `CCCN(CCC)CCc1cccc2c1CC(=O)N2` [Ropinirole hydrochloride], the “Raw Signal” value under setting [1] amounted to 53968. This compound also showed a Z-score under setting [3] of -0.3994.

Turning to `Nc1nc(SCc2ccc([N+](=O)[O-])cc2)c2ncn([C@@H]3O[C@H](CO)[C@@H](O)[C@H]3O)c2n1` [S-(4-Nitrobenzyl)-6-thioguanosine], the “Raw Signal” value under setting [6] was found to be 63053. This compound came in with a Z-score under setting [7] of 0.9053.

For `C[N+](C)(C)CCOC(N)=O` [Carbachol], the “Raw Signal” value under setting [6] was 62361. For the same compound, the Z-score under setting [7] came to 0.7834.

Regarding `O=C(O)C1CN(CCCP(=O)(O)O)CCN1` (racemic) [(±)-CPP], under setting [6], the “Raw Signal” value is 59493. This compound also came in with a Z-score under setting [7] of 0.8786.

With `CC(C)c1cccc(C(C)C)c1O` [Propofol], the “Raw Signal” value turned out to be 48098 and the Z-score is -1.436.

`O=C(O)/C=C\C(=O)O.O=[N+]([O-])c1ccc2nc(N3CCNCC3)ccc2c1` [Quipazine, 6-nitro-, maleate] showed a Z-score under setting [3] of -0.2764.

For `COC(=O)c1c(-c2cc(OC)c(OC)c(OC)c2)c2ccnc(OCc3ncccn3)c2c(=O)n1Cc1ccnc(C)c1` [T-0156], the “Raw Signal” value under setting [4] worked out at 53574. Further, the Z-score under setting [5] is reported as -0.476.

Turning to `CC(C)N(CCC(C(N)=O)(c1ccccc1)c1ccccn1)C(C)C` (stereo not shown) [Disopyramide], the “Raw Signal” value under setting [4] was 43822. Also, the Z-score under setting [5] is -2.304.

For `CC(=O)OCC(=O)[C@@]1(O)CC[C@H]2[C@@H]3CCC4=CC(=O)CC[C@]4(C)[C@H]3C(=O)C[C@@]21C` [Cortisone 21-acetate], the “Raw Signal” value under setting [1] worked out at 59780. Further, the Z-score under setting [2] is reported as 0.3288.

Turning to `Br.NCc1cc(O)no1` [Muscimol hydrobromide], under setting [1], the “Raw Signal” value was 54732. Under setting [2], this compound yielded a Z-score of -0.08835.

For the compound `NS(=O)(=O)c1cc2c(cc1Cl)NC(C1CC3C=CC1C3)NS2(=O)=O` (stereo not shown) [Cyclothiazide], under setting [6], the “Raw Signal” value was found to be 61194. In addition, the Z-score under setting [7] was found to be 1.224.

For the compound `CN1CCN(C(=O)OC2c3nccnc3C(=O)N2c2ccc(Cl)cn2)CC1` (stereo not shown) [Zopiclone], the “Raw Signal” value under setting [1] is recorded as 56506. Under setting [2], the Z-score amounted to 0.09368.

In the case of `O=C(O)[C@H]1C[C@H](C(=O)O)N1` (relative stereo) [trans-Azetidine-2,4-dicarboxylic acid], under setting [1], the “Raw Signal” value is given as 57895. Under setting [2], this compound gave a Z-score of -0.003188.

In the case of LY-367,265, under setting [4], the “Raw Signal” value is listed as 62501. The same compound came in with a Z-score under setting [8] of 1.362.

Consider `N#Cc1cc2nc([O-])c([O-])nc2cc1[N+](=O)[O-].[Na+].[Na+]` [CNQX disodium], for which the “Raw Signal” value under setting [1] came to 53180. The compound also came in with a Z-score under setting [3] of -0.4035.

For `C[n+]1cc2c3c(ccc2c2ccc4cc5c(cc4c21)OCO5)OCO3` [Sanguinarine chloride], under setting [4], the “Raw Signal” value is on record as 52602. The Z-score under setting [5] is -0.6648.

As to `Cl.NCCc1ccc(S(=O)(=O)F)cc1`, the “Raw Signal” value under setting [1] stood at 58918. For the same compound, under setting [2], the Z-score is on record as 0.177.

`Cc1c(OCC(F)(F)F)ccnc1C[S+]([O-])c1nc2ccccc2[nH]1` (stereo not shown) [Lansoprazole]: the “Raw Signal” value under setting [1] was 53701. In addition, under setting [3], the Z-score is listed as -0.1164.

As to `Br.CCCN1CCC2c3cc(O)ccc3CCC21` (racemic) [cis-(±)-8-OH-PBZI hydrobromide], the “Raw Signal” value under setting [1] was 53901. Under setting [2], this compound came in with a Z-score of -0.08275.

On to `C[C@](N)(CCP(=O)(O)O)C(=O)O.Cl` [(S)-MAP4 hydrochloride], for which, under setting [1], the “Raw Signal” value came to 53240. Under setting [3], this compound registered a Z-score of -0.1938.

With `C[N+](C)(C)CCOP(=O)([O-])OP(=O)([O-])OC[C@H]1O[C@@H](n2ccc(N)nc2=O)[C@H](O)[C@@H]1O.[Na+]` [Citicoline sodium], under setting [6], the “Raw Signal” value amounted to 63989. Further, the Z-score under setting [7] was determined as 1.07.

With `CC[C@@]1(O)C(=O)OCc2c1cc1n(c2=O)Cc2cc3ccccc3nc2-1` [(S)-(+)-Camptothecin], the “Raw Signal” value under setting [6] is on record as 58626. For the same compound, the Z-score under setting [7] is 0.7025.

Turning to `NC(N)=NOCC[C@H](N)C(=O)O.O=S(=O)(O)O` [L-Canavanine sulfate], the “Raw Signal” value under setting [6] was 61689. Moreover, under setting [7], the Z-score was determined as 0.665.

In the case of `NS(=O)(=O)c1cc2c(cc1Cl)N=CNS2(=O)=O` [Chlorothiazide], the “Raw Signal” value under setting [4] is 49210. The compound also had a Z-score under setting [5] of -1.533.

Regarding `OC1(c2ccc(Cl)cc2)CCN(Cc2c[nH]c3ccccc23)CC1` [L-741,626], the “Raw Signal” value under setting [4] came to 51249. Under setting [5], this compound showed a Z-score of -0.5284.

For `OCc1cc(C(O)CNCCCCCCOCCCCc2ccccc2)ccc1O` (stereo not shown) [Salmeterol], the “Raw Signal” value under setting [4] is 52718. Besides, under setting [5], the Z-score is on record as -0.6423.

As to `CC(C)NCC(O)COc1ccc(CC(N)=O)cc1` (racemic) [(±)-Atenolol], the “Raw Signal” value under setting [1] is 56468. In addition, the Z-score under setting [3] is recorded as -0.2545.

As to `CC(C)[N+]1(C)[C@@H]2CC[C@H]1C[C@@H](OC(=O)C(CO)c1ccccc1)C2` (stereo partly shown) [Ipratropium bromide], the “Raw Signal” value under setting [6] worked out at 56944. Further, under setting [7], the Z-score worked out at 0.3609.

Consider `CC(C)[C@@]1(NC(=O)[C@@H]2C[C@@H]3c4cccc5[nH]cc(c45)C[C@H]3N(C)C2)O[C@@]2(O)[C@@H]3CCCN3C(=O)[C@H](Cc3ccccc3)N2C1=O.CS(=O)(=O)O` [Dihydroergocristine methanesulfonate], for which, under setting [4], the “Raw Signal” value worked out at 65195. This compound gave a Z-score under setting [8] of 2.037.

For `N[C@H]1CON=C1O` [L-Cycloserine], the “Raw Signal” value under setting [1] was 56773. The Z-score under setting [3] is -0.2008.

For the compound `CN1CCN(CC(=O)N2c3ccccc3C(=O)Nc3cccnc32)CC1` [Pirenzepine dihydrochloride], under setting [6], the “Raw Signal” value was 62871. The compound further gave a Z-score under setting [7] of 1.33.

Consider `CN1C[C@@H](NS(=O)(=O)N(C)C)C[C@@H]2c3cccc4c3c(cn4C)C[C@H]21` [Mesulergine hydrochloride], for which the “Raw Signal” value under setting [1] stood at 53840. The compound also yielded a Z-score under setting [3] of -0.093.

Consider `OC[C@H]1NC[C@H](O)[C@@H](O)[C@@H]1O` [1-Deoxynojirimycin hydrochloride], for which the “Raw Signal” value under setting [6] turned out to be 59013. In addition, the Z-score under setting [7] is on record as 0.7811.
